In ChEMBL document CHEMBL3988442, “University of Dundee, Small-Polar-MMV Screening Library” (2021):
“And” between values parts separate entries of the source, which are not always exact repeats. Identical values can stand only once.

Tests used:
[1] = target: Sialic acid-binding Ig-like lectin 9 (Homo sapiens, UniProt Q9Y336); experiment: Hs-Siglec9 ALPHAscreen SOP 20170721
Wolbachia pipientis = experiment: Anti-Wolbachia Cell-Based Screen; type: functional; settings: for IC50: Wolbachia pipientis
[2] = test system: Mycobacterium tuberculosis; experiment: Cornell M. t heat shock assay; type: functional, organism-based; settings: for IC50: Mycobacterium tuberculosis
[3] = target: Polyketide synthase Pks13 (Mycobacterium tuberculosis (strain ATCC 25618 / H37Rv), UniProt I6X8D2); experiment: Mycobacterium tuberculosis Polyketide synthase 13 Thioesterase (PKS13); type: functional
[4] = target: T1, Coenzyme A biosynthesis bifunctional protein CoaBC (Mycobacterium tuberculosis (strain ATCC 25618 / H37Rv), UniProt P9WNZ1); experiment: Biomol Green assay for MtCoaBC inhibitor, OD650 read; type: functional
T1 sequence (P9WNZ1 whole entry): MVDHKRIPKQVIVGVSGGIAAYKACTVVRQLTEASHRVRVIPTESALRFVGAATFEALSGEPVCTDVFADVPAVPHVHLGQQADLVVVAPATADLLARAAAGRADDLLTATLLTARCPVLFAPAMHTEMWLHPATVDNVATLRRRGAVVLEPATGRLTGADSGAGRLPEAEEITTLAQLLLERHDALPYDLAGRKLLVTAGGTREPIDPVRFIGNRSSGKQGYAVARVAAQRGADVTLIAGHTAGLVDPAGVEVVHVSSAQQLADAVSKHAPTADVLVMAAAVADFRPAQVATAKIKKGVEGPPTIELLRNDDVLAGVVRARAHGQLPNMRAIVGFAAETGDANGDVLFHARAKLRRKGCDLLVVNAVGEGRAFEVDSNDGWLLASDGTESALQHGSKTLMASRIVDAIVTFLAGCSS

[5] = microbe, parasite or virus in culture; settings: Mycobacterium tuberculosis, 96 h, read-out: pIC50 (converted)
[6] = microbe, parasite or virus in culture; settings: Mycobacterium tuberculosis, 72 h, read-out: pIC50 (converted)
Plasmodium falciparum = experiment: Calibr Malaria Delayed Death Assay SOP; type: functional, organism-based
Histidine--tRNA ligase = target: T2, Histidine--tRNA ligase (Leishmania infantum, UniProt A4I591); experiment: Leishmania infantum Histidine tRNA synthetase (LdHisRS); type: functional
T2 sequence (A4I591 whole entry): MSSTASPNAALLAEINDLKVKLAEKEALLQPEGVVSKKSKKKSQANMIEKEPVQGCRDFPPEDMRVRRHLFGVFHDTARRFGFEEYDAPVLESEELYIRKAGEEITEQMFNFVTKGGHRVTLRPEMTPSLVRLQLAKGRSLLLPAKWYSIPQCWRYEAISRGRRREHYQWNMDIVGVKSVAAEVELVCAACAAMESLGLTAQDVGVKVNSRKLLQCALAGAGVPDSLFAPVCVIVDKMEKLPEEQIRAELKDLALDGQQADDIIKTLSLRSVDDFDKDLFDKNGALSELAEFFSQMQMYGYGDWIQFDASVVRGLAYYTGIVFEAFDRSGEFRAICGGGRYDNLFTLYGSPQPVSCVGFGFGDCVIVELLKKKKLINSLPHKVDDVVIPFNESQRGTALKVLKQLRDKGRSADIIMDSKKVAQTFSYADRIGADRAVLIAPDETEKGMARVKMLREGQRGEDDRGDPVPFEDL

Lysine--tRNA ligase = Lysine--tRNA ligase (Plasmodium falciparum (isolate 3D7), UniProt Q8IDJ8); experiment: Pf-KRS-1 (Lysyl-RNA Synthetase-1, KRS-1, cytosolic KRS) from Plasmodium falciparum. Inhibitor assay, 384 well plate, luminescence read.; type: functional
Lysine--tRNA ligase, sequence (Q8IDJ8 whole entry): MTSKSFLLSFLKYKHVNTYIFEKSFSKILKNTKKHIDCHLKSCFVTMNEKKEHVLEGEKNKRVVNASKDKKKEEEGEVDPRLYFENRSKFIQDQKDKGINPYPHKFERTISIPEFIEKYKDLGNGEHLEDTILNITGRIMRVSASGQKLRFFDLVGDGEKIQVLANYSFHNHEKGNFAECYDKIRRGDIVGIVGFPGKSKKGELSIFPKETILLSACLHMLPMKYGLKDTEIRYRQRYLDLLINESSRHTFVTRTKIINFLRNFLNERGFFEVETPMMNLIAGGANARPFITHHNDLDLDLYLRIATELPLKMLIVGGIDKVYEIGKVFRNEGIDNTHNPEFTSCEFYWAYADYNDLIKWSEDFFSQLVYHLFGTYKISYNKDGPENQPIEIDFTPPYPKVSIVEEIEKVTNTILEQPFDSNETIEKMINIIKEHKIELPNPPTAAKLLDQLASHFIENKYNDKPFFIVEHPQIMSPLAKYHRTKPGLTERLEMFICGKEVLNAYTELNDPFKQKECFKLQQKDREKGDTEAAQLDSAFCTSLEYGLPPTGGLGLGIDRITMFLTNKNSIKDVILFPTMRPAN

Sialic acid-binding Ig-like lectin 9, sequence (Q9Y336 whole entry): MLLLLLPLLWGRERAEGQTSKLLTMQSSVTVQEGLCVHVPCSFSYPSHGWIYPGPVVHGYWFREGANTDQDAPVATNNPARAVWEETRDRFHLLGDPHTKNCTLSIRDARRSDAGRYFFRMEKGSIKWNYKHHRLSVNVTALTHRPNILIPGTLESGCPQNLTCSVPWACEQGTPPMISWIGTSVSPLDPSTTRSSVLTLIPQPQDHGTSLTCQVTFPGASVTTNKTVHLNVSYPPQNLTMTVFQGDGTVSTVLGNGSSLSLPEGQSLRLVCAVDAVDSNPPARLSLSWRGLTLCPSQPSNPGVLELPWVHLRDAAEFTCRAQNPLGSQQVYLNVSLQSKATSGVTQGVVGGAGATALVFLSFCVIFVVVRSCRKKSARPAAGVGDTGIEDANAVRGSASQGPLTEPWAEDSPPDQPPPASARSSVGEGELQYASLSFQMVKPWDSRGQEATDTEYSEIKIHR
Polyketide synthase Pks13, sequence (I6X8D2 whole entry): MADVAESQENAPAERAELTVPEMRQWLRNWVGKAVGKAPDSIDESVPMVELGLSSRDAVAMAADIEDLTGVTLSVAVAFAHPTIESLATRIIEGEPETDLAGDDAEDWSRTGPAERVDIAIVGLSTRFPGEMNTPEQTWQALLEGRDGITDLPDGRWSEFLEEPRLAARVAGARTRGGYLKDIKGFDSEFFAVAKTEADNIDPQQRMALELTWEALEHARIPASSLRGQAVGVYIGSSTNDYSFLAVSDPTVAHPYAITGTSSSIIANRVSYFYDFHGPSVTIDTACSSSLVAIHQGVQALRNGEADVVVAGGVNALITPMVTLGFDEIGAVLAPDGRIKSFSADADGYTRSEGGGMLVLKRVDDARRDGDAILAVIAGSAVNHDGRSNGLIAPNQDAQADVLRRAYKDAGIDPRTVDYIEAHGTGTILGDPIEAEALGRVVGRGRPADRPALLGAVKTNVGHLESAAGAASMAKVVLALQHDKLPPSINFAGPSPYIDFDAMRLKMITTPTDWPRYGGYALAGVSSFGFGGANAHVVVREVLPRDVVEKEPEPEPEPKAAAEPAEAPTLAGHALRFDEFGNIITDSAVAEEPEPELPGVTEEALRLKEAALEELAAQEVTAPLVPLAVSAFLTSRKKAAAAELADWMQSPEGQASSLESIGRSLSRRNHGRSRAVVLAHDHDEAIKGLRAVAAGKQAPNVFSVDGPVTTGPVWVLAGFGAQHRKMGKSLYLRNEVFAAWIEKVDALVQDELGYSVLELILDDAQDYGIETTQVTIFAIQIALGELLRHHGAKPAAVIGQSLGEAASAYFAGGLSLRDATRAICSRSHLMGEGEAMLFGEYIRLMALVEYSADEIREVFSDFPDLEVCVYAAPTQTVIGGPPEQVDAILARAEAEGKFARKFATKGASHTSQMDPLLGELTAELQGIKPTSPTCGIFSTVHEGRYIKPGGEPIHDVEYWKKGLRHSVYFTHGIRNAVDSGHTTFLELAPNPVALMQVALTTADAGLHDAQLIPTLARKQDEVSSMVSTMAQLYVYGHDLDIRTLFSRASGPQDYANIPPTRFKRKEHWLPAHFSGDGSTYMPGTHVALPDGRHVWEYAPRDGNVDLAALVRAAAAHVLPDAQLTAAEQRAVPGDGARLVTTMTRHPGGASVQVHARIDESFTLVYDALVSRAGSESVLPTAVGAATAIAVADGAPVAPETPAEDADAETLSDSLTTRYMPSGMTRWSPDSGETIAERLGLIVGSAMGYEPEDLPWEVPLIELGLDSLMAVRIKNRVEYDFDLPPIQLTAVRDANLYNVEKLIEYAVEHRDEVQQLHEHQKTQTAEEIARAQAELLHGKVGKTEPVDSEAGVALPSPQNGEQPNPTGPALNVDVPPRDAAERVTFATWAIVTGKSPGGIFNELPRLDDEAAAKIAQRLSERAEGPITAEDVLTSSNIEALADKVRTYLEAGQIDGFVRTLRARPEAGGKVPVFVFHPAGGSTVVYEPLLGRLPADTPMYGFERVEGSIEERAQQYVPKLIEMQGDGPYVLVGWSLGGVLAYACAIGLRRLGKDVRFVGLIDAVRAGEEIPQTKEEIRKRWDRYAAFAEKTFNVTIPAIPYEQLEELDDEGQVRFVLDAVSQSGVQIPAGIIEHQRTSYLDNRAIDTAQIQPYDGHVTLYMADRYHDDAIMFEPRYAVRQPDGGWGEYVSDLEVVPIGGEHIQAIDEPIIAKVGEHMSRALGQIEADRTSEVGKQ

## CC(C)CCNc1nc(C(=O)NC2CC2)cs1
[1]
  IC50: > 30.2 µM

## CCn1ncc2c1C(COC)CN(Cc1cnn(C)c1)C2 (stereo not drawn)
[1]
  IC50: > 30.2 µM

## CCOC(=O)[C@H]1[C@@H](O)C(=O)N(C)C12CCN(C(=O)OC)CC2
[1]
  IC50: > 30.2 µM

## O=C(C1CCN(c2nc3nc[nH]c(=O)c3s2)CC1)N1CCCCC1
[1]
  IC50: > 30.2 µM

## CCn1ncc2c1C(COC)CN(Cc1ccsc1)C2 (stereo not drawn)
[1]
  IC50: > 30.2 µM

## O=C(N1CCCC1)N1CCO[C@H]2[C@@H](Oc3ccccn3)CC[C@@H]21
[1]
  IC50: > 30.2 µM

## COc1ccc(C(C)NCc2scnc2C)cc1Cn1cccn1 (stereo not drawn)
[1]
  IC50: > 30.2 µM

## Cc1nc(CN2C[C@@H]3COC[C@]3(COCC(=O)N(C)C)C2)cs1
[1]
  IC50: > 30.2 µM

## COc1c(C(=O)NCc2cccnc2)nnn1Cc1ccc(C)cc1
[1]
  IC50: > 30.2 µM

## CS(=O)(=O)N1CCCC1c1cccc(Nc2nccs2)n1 (stereo not drawn)
Wolbachia pipientis
  pIC50: 5.083
  IC50: 9.08 µM
[2]
  IC50: > 100 µM

## CC(C)CCN1CCC2(CC1)NCc1ccccc1NC2=O
[1]
  IC50: > 30.2 µM

## O=C(NCc1nc2ccccc2[nH]1)c1cc2n(n1)CCCO2
[1]
  IC50: > 30.2 µM

## COc1ccc([C@@H]2CN(Cc3ccncc3)C[C@H]2c2cc[nH]n2)cc1
[1]
  IC50: > 30.2 µM

## COC(=O)CC1CCN(C(=O)c2ccccc2-n2nnnc2C)CC1
[1]
  IC50: > 30.2 µM

## CCc1cc(N2CC(N3CCCCC3C)C2)n2nccc2n1 (stereo not drawn)
[1]
  IC50: > 30.2 µM

## CC(C)NC(=O)C1CCN(c2nc3nc[nH]c(=O)c3s2)CC1
[1]
  IC50: > 30.2 µM

## CCOC(=O)Cc1csc(NC(=O)c2cc3n(n2)CCCO3)n1
[1]
  IC50: > 30.2 µM

## CCOCC1CN(Cc2ccsc2)Cc2cnn(C)c21 (stereo not drawn)
[1]
  IC50: > 30.2 µM

## CCOC(=O)[C@@H]1[C@@H](O)C(=O)N(C)C12CCN(C(=O)OC)CC2
[1]
  IC50: > 30.2 µM

## O=C1Nc2ccccc2CNC12CCN(CC1CCCC1)CC2
[1]
  IC50: > 30.2 µM

## CC(C)n1cnnc1C1CCCN(S(=O)(=O)CC2CCCC2)C1 (stereo not drawn)
[1]
  IC50: > 30.2 µM

## CCc1cc(N2CCCC(c3noc(CC)n3)C2)ncn1 (stereo not drawn)
[1]
  IC50: > 30.2 µM

## CCn1nnc2c1C(COC)CN(Cc1ccsc1)C2 (stereo not drawn)
[1]
  IC50: > 30.2 µM

## FC(F)(F)CCc1ccnc(NCc2csc(N3CCOCC3)n2)n1
[1]
  IC50: > 30.2 µM

## CCc1cc(N2CCC(N3CCSCC3)CC2)n2nccc2n1
[1]
  IC50: > 30.2 µM

## c1ccc2oc(CCCN3CCCCC3Cn3cncn3)nc2c1 (stereo not drawn)
[3]
  IC50: > 100 µM
[2]
  IC50: > 100 µM

## COC(=O)CC1CCN(C(=O)c2ccc(C)cc2)CC1
[1]
  IC50: > 30.2 µM

## CCn1ncnc1C1CC(=O)NCc2nc(N3CCCC3)sc21 (stereo not drawn)
[1]
  IC50: > 30.2 µM

## c1ccc([C@@H]2CN(Cc3ccncc3)C[C@H]2c2cc[nH]n2)cc1
[1]
  IC50: > 30.2 µM

## Cc1cc(C(=O)NC2CC(=O)N(C(C)C)C2=O)c(C)n1C(C)C (stereo not drawn)
[1]
  IC50: > 30.2 µM

## c1cc2occc2c(N2CCCC(c3nncn3C3CC3)C2)n1 (stereo not drawn)
[1]
  IC50: > 30.2 µM

## Cc1ccccc1CN1CCCC1c1cccc(Nc2nccs2)n1 (stereo not drawn)
[4]
  IC50: > 30.2 µM
[2]
  pIC50: 5.632
  IC50: 1.93 µM

## O=C(NCC1(O)CCC1)c1cccc(-n2cccn2)c1
[1]
  IC50: > 30.2 µM

## Cc1nc(C)c(C(=O)N2CCC(Nc3cccnc3)CC2)s1
[1]
  IC50: 9.22 µM and 7.13 µM and 9.36 µM and 3.87 µM

## NC(=O)c1csc(N2C[C@@H](CN3CCC(O)CC3)[C@@H](CO)C2)n1
[1]
  IC50: > 30.2 µM

## CC(Cn1cccn1)NCc1csc(Cc2ccccc2)n1 (stereo not drawn)
[4]
  IC50: > 30.2 µM
[2]
  IC50: 12.7 µM

## CC(C)C(NC(=O)c1cnc(N2CCOCC2)nc1)c1cccs1 (stereo not drawn)
[4]
  IC50: > 30.2 µM
[5]
  IC50: 48.9 µM
[2]
  IC50: 48.2 µM
[6]
  IC50: 44.9 µM

## c1cnc(N2CCC3(CCN(CC4CCCC4)CC3)C2)nc1
[1]
  IC50: > 30.2 µM

## COC(=O)C(O)C1CCN(Cc2cccc(-n3cccn3)c2)CC1 (stereo not drawn)
[1]
  IC50: > 30.2 µM

## CC(C)n1cnnc1C1CCCN(C(=O)COCc2ccccc2)C1 (stereo not drawn)
[1]
  IC50: > 30.2 µM

## CCOC(=O)[C@H]1[C@@H](O)C(=O)N(C)C12CCN(C(=O)CC1CCCC1)CC2
[1]
  IC50: > 30.2 µM

## CN(C)C(=O)COC[C@]12COC[C@H]1CN(Cc1ccccc1)C2
[1]
  IC50: > 30.2 µM

## Cc1ncsc1CCC(=O)NCc1csc(N2CCCC2)n1
[1]
  IC50: > 30.2 µM

## CC(=O)N[C@@H]1CN(c2nc(C(N)=O)cs2)C[C@H]1c1ccc(C)o1
[1]
  IC50: > 30.2 µM

## O=C1Nc2ccccc2CNC12CCN(CC1CCNC1)CC2 (stereo not drawn)
[1]
  IC50: > 30.2 µM

## CC(C)N(C)CC(=O)NCc1ccccc1N1CCN(C)CC1
[1]
  IC50: > 30.2 µM

## c1csc(CN2Cc3nccn3CC(Cn3cncn3)C2)n1 (stereo not drawn)
[1]
  IC50: > 30.2 µM

## c1ccc(CCN2CCCC2c2cccc(Nc3nccs3)n2)cc1 (stereo not drawn)
[4]
  IC50: > 30.2 µM
Wolbachia pipientis
  pIC50: 5.678
  IC50: 1.09 µM
[2]
  pIC50: 4.565
  IC50: 38.9 µM

## COCCN1CCC2(CC1)COc1ccccc1S(=O)(=O)N(C)C2
[1]
  IC50: > 30.2 µM

## NC(=O)c1csc(N2C[C@@H](CN3CCOCC3)[C@@H](CO)C2)n1
[1]
  IC50: > 30.2 µM

## CCN1CC2(CCN(C(=O)N(C)C)CC2)COc2ccccc2S1(=O)=O
[1]
  IC50: > 30.2 µM

## CN1CC2(CCN(CC3CC3)CC2)COc2ccccc2S1(=O)=O
[1]
  IC50: > 30.2 µM

## CC(C)n1cnnc1C1CCCN(S(=O)(=O)c2c[nH]cn2)C1 (stereo not drawn)
[1]
  IC50: > 30.2 µM

## CC(C)n1cnnc1CCNCc1cn(CCC(N)=O)c2ccccc12
[1]
  IC50: > 30.2 µM

## Cc1cc(CNC(=O)c2cnoc2C)c(C)o1
[1]
  IC50: > 30.2 µM

## NC(=O)c1csc(N2C[C@@H](CN3CCCCC3)[C@@H](CO)C2)n1
[1]
  IC50: > 30.2 µM

## O=C(NCCc1nncn1C1CC1)C1(Cc2ccccc2)CCC1
[1]
  IC50: > 30.2 µM

## COCC(=O)N1CCC2(CC1)COc1ccccc1S(=O)(=O)N(C)C2
[1]
  IC50: > 30.2 µM

## Cc1cc(S(=O)(=O)N(CCO)C2CC2)ccc1F
[1]
  IC50: > 30.2 µM

## O=C(CN1CCOC(CNc2cccnn2)C1)NCc1cccs1 (stereo not drawn)
Wolbachia pipientis
  IC50: > 10 µM
[2]
  IC50: > 100 µM

## CCc1cc(=O)[nH]c(NC2CCN(S(=O)(=O)c3ccccc3)CC2)n1
[4]
  IC50: > 30.2 µM
[2]
  IC50: > 100 µM

## Cc1cccc(CN2CCCC2c2cccc(Nc3nccs3)n2)c1 (stereo not drawn)
Wolbachia pipientis
  pIC50: 5.856
  IC50: 1.87 µM
Plasmodium falciparum
  pIC50: 5.988
Plasmodium falciparum; Plasmodium falciparum
  IC50: 1.01 µM
[2]
  pIC50: 5.755
  IC50: 2.41 µM

## CCN(CC)S(=O)(=O)N1CCCC1c1cccc(Nc2ncc(C)s2)n1 (stereo not drawn)
Wolbachia pipientis
  pIC50: 5.165
  IC50: 8.99 µM
[2]
  IC50: > 100 µM

## COc1ccc(-n2cc(CCO)cn2)cc1C
[4]
  IC50: > 30.2 µM
Histidine--tRNA ligase
  IC50: 17.7 µM and 11.1 µM
Lysine--tRNA ligase
  IC50: > 50.1 µM
[2]
  IC50: 41.4 µM

## Cc1cnc(Nc2cccc(C3CCCN3Cc3cn(C)nc3C)n2)s1 (stereo not drawn)
[4]
  IC50: > 30.2 µM
Wolbachia pipientis
  pIC50: 5.174
  IC50: 5.37 µM
[2]
  pIC50: 5.045 and 4.742
